According to PMC10706425, “Enhancing the Antimicrobial Properties of Peptides through Cell-Penetrating Peptide Conjugation: A Comprehensive Assessment” (International Journal of Molecular Sciences, 2023):

Experiments:
[1] = test system: human skin fibroblasts; assay: Cytostatic effect, cell cycle phases and mitotic activity; format: cell-based; conditions: 50 μg/mL, with and without pre-incubation
Procedure: (§1) The culture of normal human fibroblasts was obtained from the skin areas of the inner surface of the forearm of healthy volunteers after their consent using the explant method. All volunteers gave their informed consent for inclusion before they participated in the study. The study was conducted in accordance with the Declaration of Helsinki, and the protocol was approved by the Ethics Committee of ITEB RAS No. 43/2023. The culture of normal human fibroblasts was obtained from the skin areas of the inner surface of the forearm using the explant method. A 5 × 5 mm skin explant was washed for several minutes in phosphate buffer containing 400 μg/mL gentamicin sulfate. […] After the release of cells from the fragments, the cells were detached from the surface of the culture plastic, and the number of cells was determined. […]
(§2) To determine the mitotic activity, the cells were washed in phosphate-buffered saline (300 g, 5 min) and fixed with 70% ethanol (24 h, −20 °C). Then, they were stained with bisBenzimide H 33342 fluorescent dye at a concentration of 1 μg/mL for 10 min at room temperature, and the number of mitotic cells was counted using a DM 6000 fluorescent microscope (Leica, Wetzlar, Germany). At least 500 cells were analyzed.

[2] = test system: P. aeruginosa (ATCC 28753 strain); assay: Antibacterial activity in liquid medium; format: cell-based, Pseudomonas aeruginosa; conditions: for Concentrations at which the peptide showed an antimicrobial effect (comparable to gentamicin): 15 h incubation, tested 0.75–12 µM, gentamicin 200 µM, Figures 3, 4; for Peptide Activity in Liquid Medium after 15 h of Incubation (Gentamicin as Positive Control): ATCC 28753, Mueller–Hinton broth, 37 °C, 2% DMSO
Excerpt: (§3) Two S. aureus strains were used: a susceptible strain 209P and a clinical isolate strain 129B (resistant to antibiotics: benzylpenicillin, clindamycin, erythromycin, oxacillin, sulfamethoxazole, and vancomycin). Two MRSA strains were included: a susceptible strain ATCC 43300 (resistant to antibiotics: methicillin, oxacillin (beta-lactam antibiotics), ampicillin (https://www.atcc.org/products/43300 (accessed on 11 November 2023)) and a clinical isolate strain SA 180 (resistant to antibiotics: benzylpenicillin and oxacillin (beta-lactam antibiotics), ciprofloxacin, clindamycin, erythromycin, levomycetin, sulfamethoxazole, and vancomycin). One B. cereus was used: a susceptible strain, IP 5832. Two P. aeruginosa strains were included: a susceptible strain, ATCC 28753, and a resistant strain, 2943. Two E. coli strains were used: a susceptible strain, K12, and a susceptible strain, MG1655.
(§4) Determination of the growth for the bacteria S. aureus strain 209P, MRSA strain ATCC 43300, B. cereus strain IP 5832, P. aeruginosa strain ATCC 28753, and E. coli strain K12 was performed using Mueller–Hinton Broth (MHB) (Sigma-Aldrich, St. Louis, MO, USA). Bacteria of S. aureus (strain 129B) and MRSA (strain SA 180-F) were grown on the brain-heart infusion (BHI) medium, and bacteria of P. aeruginosa (strain 2943) and E. coli (strain MG1655) were grown on the LB medium. The preparation and co-incubation of peptides with bacteria were carried out as described previously. The samples were grown at 37 °C.

[3] = test system: human skin fibroblasts; assay: Cytotoxic effect, calcein AM / propidium iodide flow cytometry; format: cell-based; conditions: 50 µg/mL, with and without pre-incubation; 96 h
Procedure: as §1
The number of living and dead cells was determined by staining cells with the fluorescent dyes calcein AM (Sigma-Aldrich, St. Louis, MO, USA) and propidium iodide (Sigma-Aldrich, St. Louis, MO, USA). […] Live and dead cells were analyzed using a BD Accuri C6 flow cytometer (BD Bioscience, San Jose, CA, USA).

[4] = test system: P. aeruginosa (2943 strain); assay: Antibacterial activity in liquid medium, resistant strain; format: cell-based, Pseudomonas aeruginosa; conditions: LB medium, 37 °C
Excerpt: as §3, §4

[5] = test system: B. cereus (IP 5832 strain); assay: Antibacterial activity in liquid medium; format: cell-based, Bacillus cereus; conditions: 15 h incubation; tested 0.75–12 µM; gentamicin 200 µM; Figures 3, 4
Excerpt: as §3, §4

[6] = test system: S. aureus (129B strain); assay: Antibacterial activity in liquid medium, clinical isolate; format: cell-based, Staphylococcus aureus; conditions: BHI medium, 37 °C
Excerpt: as §3, §4

[7] = test system: BT-474 cells; assay: Cytostatic effect, cell cycle phases and mitotic activity; format: cell-based, human; conditions: 50 μg/mL, with and without pre-incubation
Procedure: (§5) BT474 human breast duct carcinoma cells were obtained from the American Collection of Type Cell Cultures (Manassas, Virginia, VA, USA). BT474 cells were cultured in DMEM medium (Sigma-Aldrich, St. Louis, MO, USA) supplemented with 10% fetal calf serum (Gibco, Waltham, MA, USA) and 40 μg/mL gentamicin sulfate (Sigma-Aldrich, St. Louis, MO, USA) at 37 °C under conditions of 5% CO2 in the air.
To study the distribution of cells over the phases of the cell cycle, cells were collected, washed in phosphate-buffered saline (300 g, 5 min), and fixed with 70% ethanol (24 h, −20 °C). Staining was carried out for 15 min at 37 °C in the following medium: phosphate-buffered saline, 0.1% Triton X100, 10 μg/mL propidium iodide, and 100 μg/mL RNase (Biolot, St. Petersburg, Russia). The analysis was performed using a BD Accuri C6 flow cytometer (BD Bioscience, San Jose, CA, USA). The obtained results were processed in the ModFit LT 4.1 program.
as §2

[8] = test system: BT474 cells; assay: Cytotoxic effect, calcein AM / propidium iodide flow cytometry; format: cell-based, human; conditions: 50 µg/mL, with and without pre-incubation; 96 h
Procedure: as §5
The number of living and dead cells was determined by staining cells with the fluorescent dyes calcein AM (Sigma-Aldrich, St. Louis, MO, USA) and propidium iodide (Sigma-Aldrich, St. Louis, MO, USA). Cells were detached from the surface of the samples using an Accutase cocktail. Cells were stained in L-15 medium with 1% fetal bovine serum containing 1 μg/mL calcein AM and 2 μg/mL propidium iodide for 25 min at 37 °C. Live and dead cells were analyzed using a BD Accuri C6 flow cytometer (BD Bioscience, San Jose, CA, USA).

[9] = test system: S. aureus (209P strain); assay: Antibacterial activity in liquid medium; format: cell-based, Staphylococcus aureus; conditions: for Peptide Activity in Liquid Medium after 15 h of Incubation (Gentamicin as Positive Control): 209P strain, Mueller–Hinton broth, 37 °C, 2% DMSO; for Concentrations at which the peptide showed an antimicrobial effect (comparable to gentamicin): 15 h incubation, tested 0.75–12 µM, gentamicin 200 µM, Figures 3, 4
Excerpt: as §3, §4

[10] = Thioflavin T fluorescence assay for amyloid-like aggregates; format: physicochemical; conditions: 24 h, 37 °C, 450 rpm; 50 mM TrisHCl pH 7.5, 150 mM NaCl, 20% DMSO; 200 µM ThT; peptide up to 190–380 μM (1 mg/mL)
Excerpt: ThT, a benzothiazole dye, is known for its unique property of binding to amyloids and amyloid-like fibrils. This interaction results in a substantial increase in the fluorescence intensity of ThT, typically observed at a wavelength of around 485 nm.
The spectra of fluorescence intensity of free ThT and in solution with individual peptides were studied by us using the method of fluorescence spectroscopy as described previously.

[11] = over the tested concentration range; cited from earlier work
Procedure: Analysis of the cytostatic effect was performed on the basis of the distribution of cells by phases of the cell cycle and mitotic activity.

[12] = test system: MRSA (ATCC 43300 strain); assay: Antibacterial activity in liquid medium; format: cell-based, Methicillin-resistant Staphylococcus aureus; conditions: for Concentrations at which the peptide showed an antimicrobial effect (comparable to gentamicin): 15 h incubation, tested 0.75–12 µM, gentamicin 200 µM, Figures 3, 4; for Peptide Activity in Liquid Medium after 15 h of Incubation (Gentamicin as Positive Control): ATCC 43300 strain, Mueller–Hinton broth, 37 °C, 2% DMSO
Excerpt: as §3, §4

[13] = test system: E. coli (K12 strain); assay: Antibacterial activity in liquid medium; format: cell-based, Escherichia coli; conditions: for Concentrations at which the peptide showed an antimicrobial effect (comparable to gentamicin): 15 h incubation, tested 0.75–12 µM, gentamicin 200 µM, Figures 3, 4; for Peptide Activity in Liquid Medium after 15 h of Incubation (Gentamicin as Positive Control): K12 strain, Mueller–Hinton broth, 37 °C, 2% DMSO
Excerpt: as §3, §4

[14] = test system: E. coli (MG1655 strain); assay: Antibacterial activity in liquid medium; format: cell-based, Escherichia coli; conditions: LB medium, 37 °C
Excerpt: as §3, §4

[15] = test system: MRSA (SA 180-F strain); assay: Antibacterial activity in liquid medium, clinical isolate; format: cell-based, Methicillin-resistant Staphylococcus aureus; conditions: BHI medium, 37 °C
Excerpt: as §3, §4

| Sequence | Proliferative activity (cytostatic effect) [1] | Concentrations at which the peptide showed an antimicrobial effect (comparable to gentamicin) [2] | Cytotoxic effect [3] | Peptide Activity in Liquid Medium after 24 h of Incubation (Meropenem as a Positive Control) [4] | Concentrations at which the peptide showed an antimicrobial effect (comparable to gentamicin) [5] [µM] | Peptide Activity in Liquid Medium after 24 h of Incubation (Meropenem as a Positive Control) [6] | Proliferative activity (cytostatic effect) [7] | Cytotoxic effect [8] | Peptide Activity in Liquid Medium after 15 h of Incubation (Gentamicin as Positive Control) [9] | Concentrations at which the peptide showed an antimicrobial effect (comparable to gentamicin) [9] | ThT fluorescence intensity at ~485 nm [10] | Cytotoxic effect [11] | Concentrations at which the peptide showed an antimicrobial effect (comparable to gentamicin) [12] | Peptide Activity in Liquid Medium after 15 h of Incubation (Gentamicin as Positive Control) [12] | Concentrations at which the peptide showed an antimicrobial effect (comparable to gentamicin) [13] | Peptide Activity in Liquid Medium after 15 h of Incubation (Gentamicin as Positive Control) [13] | Peptide Activity in Liquid Medium after 24 h of Incubation (Meropenem as a Positive Control) [14] | Peptide Activity in Liquid Medium after 24 h of Incubation (Meropenem as a Positive Control) [15] | Peptide Activity in Liquid Medium after 15 h of Incubation (Gentamicin as Positive Control) [2] |
| --- | --- | --- | --- | --- | --- | --- | --- | --- | --- | --- | --- | --- | --- | --- | --- | --- | --- | --- | --- |
| RKKRRQRRRGGGGITDFGIFIGL [R23L^P] | did not even suppress their proliferative activity | 6 to 12 µM | lacked cytotoxic effects | ≥3780 µM, 2943 strain | 1.5 to 12 | >3780 µM, 129B strain | did not even suppress their proliferative activity | lacked cytotoxic effects | 12 µM | 12 µM | multiple increase in the fluorescence intensity of ThT | not been shown to have significant effects | 12 µM | 12 µM | 12 µM | 12 µM | ≥3780 µM, MG1655 strain | >3780 µM, SA 180-F strain | – |
| ITDFGIFIGLGGGGSRQIKIWFQNRRMKWKK [I31K^P, Amyloidogenic fragment of S1 from P. aeruginosa + CPP2 (Antennapedia fragment), 31 a.a] | did not even suppress their proliferative activity | not found | lacked cytotoxic effects | >2750 µM, 2943 strain | 12 | >2750 µM, 129B strain | did not even suppress their proliferative activity | lacked cytotoxic effects | >12 µM, 209P strain | did not show strong effects | – | – | did not show strong effects | >12 µM, ATCC 43300 strain | – | >12 µM, K12 strain | >2750 µM, MG1655 strain | >2750 µM, SA 180-F strain | >12 µM, ATCC 28753 |
| RKKRRQRRRGGGGITDFGIFIGLGGGGSRQIKIWFQNRRMKWKK [R44K^P, CPP1 + amyloidogenic fragment of S1 from P. aeruginosa + CPP2, dihybrid peptide, 44 a.a] | – | 6 to 12 µM | – | ≥1930 µM, 2943 strain | 3 to 12 | >1930 µM, 129B strain | – | – | 12 µM | 12 µM | – | – | 12 µM | 12 µM | – | >12 µM, K12 strain | >1930 µM, MG1655 strain | >1930 µM, SA 180-F strain | 6 µM |
| VTDFGVFVEIGGGGSRQIKIWFQNRRMKWKK [V31K^T] | – | – | – | >2730 µM, 2943 strain | – | >2730 µM, 129B strain | – | – | >12 µM, 209P strain | – | – | – | – | >12 µM, ATCC 43300 strain | no significant antimicrobial effects | >12 µM, K12 strain | >2730 µM, MG1655 strain | >2730 µM, SA 180-F strain | >12 µM, ATCC 28753 |
